What all share (assay): NCI anticancer screen, dose series, 48 h
Experiment [1] has as its system NCI-H460 lung.
The test system of experiment [2] is NCI-H226 lung.
In experiment [3] the test system is OVCAR-4 ovarian.
The test system of experiment [4] is HL-60(TB) leukemia.
Experiment [5] deals with A549 NSCLC.
In experiment [6] the test system is IGROV1 ovarian.
Experiment [7] deals with UO-31 renal.
Experiment [8] relates to A498 renal.
Experiment [9] has as its system SK-MEL-28 melanoma.
Experiment [10] relates to UACC-62 melanoma.
Experiment [11] concerns 786-0 renal.
Experiment [12] relates to HS 578T breast.
Experiment [13] has as its system PC-3 prostate.

SMILES strings stand for the structures.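 Cells were grown in 96-well plates and exposed to each compound for 48 hours at five concentrations; endpoints were interpolated linearly between bracketing concentrations, or set to the highest concentration if not reached. GI50 is the concentration that inhibits growth by half. TGI denotes the concentration required for complete inhibition of growth.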 Bounds are passed on as bounds.

In the case of `Cc1nc(Nc2nnc(-c3cc([N+](=O)[O-])cc([N+](=O)[O-])c3C)o2)sc1C(=O)CC(=O)Cc1nc2ccc(Cl)cc2[nH]c1=O`, the TGI in [1], in [2], in experiment [3], in experiment [4], in [5] and in [6] was over 100 µM throughout. Moreover, the TGI in experiment [7], in experiment [8], in experiment [9] and in [10] was over 100 µM throughout.
In the case of `CC(=O)O[C@H]1CC[C@H]2[C@@H]3CCc4cc(O)c(I)cc4[C@H]3CC[C@]12C`, the TGI was 26.9 µM in experiment [1]; 30.7 µM in experiment [2]; 28 µM in experiment [3]; 27.1 µM in [11]; 80.9 µM in experiment [4]; 29.5 µM in experiment [5]. For the same compound, the TGI in experiment [6] worked out at 30.5 µM; in [7], 27.1 µM; in experiment [9], 29.6 µM; in [12], 31.9 µM; in experiment [13], 20 µM; in experiment [10] it was 24.4 µM. Moreover, in experiment [10], the GI50 was 12 µM.
In the case of `COC(=O)/C=C\c1ccc2c(c1)CC1(C2)Cc2ccc(/C=C/C(=O)OC)cc2C1` (stereo unspecified), the TGI is over 100 µM in experiment [1]; over 31.6 µM in experiment [2]; over 31.6 µM in experiment [3]; over 31.6 µM in experiment [11]; over 31.6 µM in experiment [4]; over 31.6 µM in experiment [5]. Moreover, the TGI is over 31.6 µM in experiment [6]; over 31.6 µM in [7]; over 100 µM in [9]; over 31.6 µM in experiment [12]; over 31.6 µM in experiment [13]; over 31.6 µM in experiment [10].
On to `CC(=O)OCC1OC(n2c(C)c(N=Nc3ccc(C)cc3)c(C)c(C#N)c2=S)C(OC(C)=O)C(OC(C)=O)C1OC(C)=O` (stereo unspecified), for which the TGI is over 100 µM in experiment [1]; over 100 µM in experiment [3]; 72.4 µM in experiment [11]; over 100 µM in [4]; over 100 µM in experiment [5]; over 100 µM in [6]. For the same compound, the TGI in experiment [7] is over 100 µM; in experiment [9], over 100 µM; in experiment [12], 74.7 µM; in experiment [13], over 100 µM; in [10], over 100 µM.
As for `Cc1ccc2c(c1)C(=O)/C(=C1/CCc3ccc(C)cc31)C2`, the TGI in experiment [1], in experiment [2], in experiment [3], in experiment [11], in experiment [4] and in experiment [5] was over 100 µM each time. Further, the TGI in experiment [6], in [7], in experiment [8], in experiment [9], in [12] and in [10] was over 100 µM in each case.
For the compound `COC(=O)c1cccc(NC(=O)Nc2ccc3oc(=O)c4ccccc4c3c2)c1`, the GI50 in [1] was over 100 µM; in experiment [4], 46.5 µM; in experiment [5], over 100 µM; in [6] it was over 100 µM; in [7], over 100 µM; in experiment [9], over 100 µM. The TGI in experiment [1], in experiment [4], in experiment [5], in experiment [6], in experiment [7] and in experiment [9] was over 100 µM each time.
`CS(=O)(=O)c1nc(N)nc2nc[nH]c12`: the TGI in [1], in experiment [2], in experiment [3], in [11], in experiment [4] and in experiment [5] was over 100 µM each time. For the same compound, the TGI in [6], in [7], in experiment [8], in experiment [9] and in experiment [10] was over 100 µM throughout.
In the case of `CCSC(=Nc1ccccc1)SC`, the TGI in experiment [1], in [2], in experiment [3], in experiment [11], in experiment [4] and in experiment [5] was over 100 µM each time. For the same compound, the TGI in [6], in [7], in [9] and in experiment [10] was over 100 µM each time.
With `Cc1c(O)c(OC2OC(CO)C(O)C(O)C2O)cc2c1CC[C@@H]1C2(C)C(=O)C[C@]2(C)[C@@H]([C@@](C)(O)C(O)/C=C/C(C)(C)O)[C@H](O)C[C@@]12C` (stereo partly specified), the TGI in [1], in experiment [2], in [3], in experiment [11], in [4] and in experiment [5] was over 100 µM in each case. The TGI in experiment [6], in [7], in [8], in experiment [9], in experiment [13] and in experiment [10] was over 100 µM in each case.
For the compound `N#CN=Nc1cc(Cl)c(N=NC#N)cc1Cl`, the TGI in experiment [1], in experiment [2], in [3], in [4], in experiment [5] and in [6] was over 100 µM in each case. In addition, the TGI in experiment [8], in experiment [9] and in [10] was over 100 µM throughout.
For `CC(=O)c1ccc(-c2oc(-c3ccccc3)cc2-c2ccc3c(c2)OCO3)s1`, the TGI in experiment [1] is over 100 µM; in experiment [2], over 100 µM; in experiment [11] it was over 100 µM; in [4], 2.36 µM; in experiment [6], over 100 µM; in [7] it was over 100 µM. The TGI in experiment [8], in experiment [12] and in experiment [10] was over 100 µM in each case.
As to `O=C(O)C(Cc1cccs1)NC(=O)C(F)(F)F` (stereo unspecified), the TGI in experiment [1], in experiment [2], in [3], in experiment [4], in experiment [5] and in experiment [6] was over 100 µM throughout. Besides, the TGI in [7], in experiment [8], in experiment [9] and in [10] was over 100 µM each time.
For `C#CCCCC(=C)C[C@H](OCc1ccccc1)[C@H]1OC(=O)[C@@H]1C`, the TGI was over 100 µM in experiment [1]; over 100 µM in [2]; over 100 µM in [3]; over 100 µM in experiment [4]; over 100 µM in experiment [5]; 58.8 µM in experiment [7]. Besides, the TGI in experiment [8], in [9], in experiment [13] and in [10] was over 100 µM each time.
For the compound `CN(C)CCOc1cc2c(c3ccccc13)-c1ccccc1C2=O`, the TGI in experiment [1] was 2.34 µM; in experiment [2], 5.69 µM; in [3], 2.68 µM; in experiment [4], 2.7 µM; in experiment [5] it was 22 µM; in experiment [6], 7.35 µM. Moreover, the TGI is 3.15 µM in experiment [7], 19.3 µM in [8], 3.27 µM in experiment [9] and 2.97 µM in [10].
With `CC(=O)O[C@H]1C(=O)[C@@]2(C)C(C(OC(=O)c3ccccc3)[C@]3(O)CC(OC(=O)C(O)C(NC(=O)c4ccccc4)c4ccc(F)cc4)C(C)=C1C3(C)C)[C@]1(OC(C)=O)CO[C@@H]1C[C@@H]2O` (stereo partly specified), the TGI in [1], in experiment [3], in experiment [11], in experiment [5], in [6] and in [7] was over 10 µM in each case. Moreover, the TGI in experiment [13] and in experiment [10] was over 10 µM throughout.
In the case of `COC(=O)c1cc(NC2OCC(OC(C)=O)C(OC(C)=O)C2OC(C)=O)nc(SC)c1C(=O)OC` (stereo unspecified), the TGI in experiment [1], in [3], in [11], in experiment [4], in experiment [5] and in experiment [6] was over 100 µM in each case. Moreover, the TGI in experiment [7], in [9], in experiment [12], in [13] and in experiment [10] was over 100 µM in each case.
In the case of `CCCCOC(=O)CN1C(=O)c2ccccc2C1=O`, the TGI in [1], in [2], in experiment [3], in [4], in [5] and in experiment [6] was over 100 µM throughout. Further, the TGI in experiment [7], in [9] and in [10] was over 100 µM each time.
Consider `CO/C(=N/N1CC1C(F)(F)F)c1ccncc1` (stereo unspecified), for which the TGI in [1], in experiment [2], in [3], in experiment [4], in [6] and in experiment [7] was over 100 µM in each case. The TGI in experiment [8], in experiment [9], in experiment [12] and in experiment [10] was over 100 µM each time.
`COC(=O)[C@@H]1O[C@]12C(CO[Si](C)(C)C(C)(C)C)OC(n1ccc(=O)[nH]c1=O)C2O[Si](C)(C)C(C)(C)C` (stereo partly specified): the TGI in experiment [1] is over 100 µM; in experiment [2] it was 30.7 µM; in experiment [3], over 100 µM; in experiment [11], over 100 µM; in [4], 62.6 µM; in experiment [5], over 100 µM. Also, the TGI in [6] worked out at 46.1 µM; in [7], 45.5 µM; in experiment [9], 59 µM; in experiment [13] it was 68.1 µM; in experiment [10], 72.7 µM.
As to `NC(=O)/N=C(\N)NC(=O)c1ccccc1`, the TGI in experiment [1], in experiment [2], in experiment [11], in experiment [4], in experiment [5] and in experiment [6] was over 100 µM each time. The TGI in experiment [7], in [8], in [9], in experiment [13] and in [10] was over 100 µM throughout.
Turning to `CC(C)[Si](OC12CCC(CC1O)CC2C(=O)O)(C(C)C)C(C)C` (stereo unspecified), the TGI in experiment [1] was 20.2 µM; in experiment [2], 31.6 µM; in [3] it was 25.1 µM; in [11], 26.8 µM; in experiment [4], 6.87 µM; in experiment [5], 28.3 µM. Also, the TGI was determined as 26 µM in [7]; 31 µM in experiment [8]; 24.2 µM in experiment [9]; 25 µM in [13]; 27.6 µM in experiment [10].
In the case of `CC(N)Cc1cccc(C(F)(F)F)c1` (stereo unspecified), the TGI in experiment [1], in experiment [2], in experiment [3], in experiment [11], in experiment [4] and in [5] was over 100 µM each time. In addition, the TGI in experiment [6], in [7], in experiment [8], in experiment [9] and in [10] was over 100 µM each time.
For the compound `COC(=O)c1cc(Br)c(C(=O)C(Cl)(Cl)Cl)[nH]1`, the TGI in experiment [1], in [2], in experiment [3], in experiment [11], in experiment [4] and in experiment [5] was over 100 µM throughout. For the same compound, the TGI in experiment [6], in experiment [7], in [8], in experiment [9], in experiment [13] and in experiment [10] was over 100 µM each time.
Take `CCOC(=O)c1sc2nc(SC)nc(Nc3ccc4c(c3)OCCCO4)c2c1N`: the TGI in experiment [2], in [3], in experiment [11], in experiment [4], in [5] and in [6] was over 100 µM throughout. Moreover, the TGI in experiment [7], in [8], in [9], in experiment [13] and in experiment [10] was over 100 µM each time.

For the origin of these results see PubChem BioAssay (NCI).
